Legend:
Aβ42 = molecular target: T1, Aβ42 (Homo sapiens, UniProt P05067); assay: Plasma Aβ42 level; type: in vivo, mouse; settings: TgCRND8 mice; 28 days of therapy at five months of age; untreated 1144±76 pg/ml
T1 construct: analyzed for Aβ40 and Aβ42 using commercially available kits; from tissue; host or cells: hemi-brain homogenates and plasma of TgCRND8 transgenic mice
Description: Plasma and Cerebral Aβ Content. Hemi-brain samples were homogenized in a buffered sucrose solution, followed by either 0.4% diethylamine/100 mM NaCl for soluble Aβ levels or cold formic acid for the isolation of total Aβ. After neutralization, the samples were diluted and analyzed for Aβ40 and Aβ42 using commercially available kits (BIOSOURCE International). Each hemisphere was analyzed in triplicate and the mean values±SEM reported. Western blot analyses were performed on all fractions using urea gels for Aβ species analyses. Aβ was detected using 6E10 (BIOSOURCE International) and Enhanced Chemiluminenscence (Amersham).
Plasma and cerebral Aβ content. Hemi-brain samples were homogenized in a buffered sucrose solution, followed by either a mixture of 0.4% diethylamine and 100 mM NaCl for soluble Aβ levels or cold formic acid for the isolation of total Aβ. After neutralization, samples were diluted and analyzed for Aβ40 and Aβ42 using commercially available kits (Biosource International). Each hemisphere was analyzed in triplicate and the mean±s.e.m. was reported. Western blot analyses were carried out on all fractions using urea gels for Aβ species analyses. Aβ was detected using 6E10 (Biosource International).

β-secretase = molecular target: T2, β-secretase (Homo sapiens, UniProt P56817); assay: In vitro β-secretase activity assay; type: cell-based
T2 construct: endogenous in cells

[1] = wild-type mice
Description: Mice. […] A cohort of animals (n=10 mice per treatment arm) entered the study at five months of age, and outcomes were then analyzed after one month of treatment. The body weight, coat characteristics and in cage behaviour were monitored. Mannitol was used as a negative control for potential alterations in caloric intake. All experiments were performed according to the Canadian Council on Animal Care guidelines.
Mice. […] Mannitol was used as a negative control for potential alterations in caloric intake.

γ-secretase = assay: In vitro γ-secretase assay in HEK293 cells transfected with human APPswe; type: cell-based
Description: FIG. 9. In vitro γ-secretase assays in HEK293 cells transfected with human APPswe. After swAPP stable HEK293 cells were untreated or treated with AZD-103 or 10 nM compound E, cell membranes were used for APP-FL and —CTF detection and for e-stubs generation in vitro assays at 37° C. for 1 hr. Lanes 1&[…] AZD-103 treatment; lanes 3&4 […] AZD-103 treatment; lanes 5&6 compound E treated and lanes 7&8 untreated HEK293 APPswe cells.
Analysis of APP processing. Mouse hemi-brain samples were homogenized and spun at 109,000 g, in 20 mM Tris pH 7.4, 0.25 M sucrose, 1 mM EDTA and 1 mM EGTA, and a protease inhibitor cocktail, mixed with a mixture of 0.4% DEA (diethylamine) and 100 mMNaCl. The supernatants were analyzed for APP levels by western blotting using the monoclonal antibody 22C11, and the pellets were analyzed for APP holoprotein with the monoclonal antibody C1/6.1 as previously described. […] The target protein was probed with polyclonal APP C-terminal fragment-specific antibody (Sigma) by western blotting.

TgCRND8 mice = assay: Morris water maze spatial reference memory test; type: in vivo, mouse; settings: separate cohort; 28 days of treatment from 5 months of age; data not shown
[2] = system: long term potentiation (LTP) in mouse hippocampal slices; assay: Long term potentiation in hippocampal slices with 7PA2 conditioned medium; type: cell-based
Description: Long Term Potentiation. Field potentials were recorded in CA1 of mouse hippocampus by standard procedures. Swiss Webster mice between the ages of P16 and P26 were anesthetized with isoflurane. […] The hippocampus from each hemisphere was isolated and 350 μm coronal sections were made. […] Once placed in the chamber, slices were continuously perfused by a closed loop containing 15 ml of ACSF to conserve the oligomeric Aβ. […] A bipolar stimulating electrode (World Precision Inst.) was placed in the Schaffer collaterals to deliver baseline stimuli and tetani. A borosilicate glass recording electrode (2-4 MΩ) containing ACSF was positioned approximately 75-200 μm from the stimulating electrode. […] Test stimuli were delivered at 0.05 Hz. To induce LTP, 4 tetani (100 Hz for 1 second) were delivered 5 minutes apart. Field potential responses were amplified 10× using an Axopatch 200B. The data was sampled at 10 kHz and filtered at 2 kHz. Traces were analyzed using pClamp 9.2. The slope of the field potential was estimated using approximately 10-60% of the total response.

T1 sequence (P05067 672-713 limits assumed): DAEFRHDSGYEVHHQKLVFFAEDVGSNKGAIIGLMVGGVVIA
T2 sequence (P56817 46-501): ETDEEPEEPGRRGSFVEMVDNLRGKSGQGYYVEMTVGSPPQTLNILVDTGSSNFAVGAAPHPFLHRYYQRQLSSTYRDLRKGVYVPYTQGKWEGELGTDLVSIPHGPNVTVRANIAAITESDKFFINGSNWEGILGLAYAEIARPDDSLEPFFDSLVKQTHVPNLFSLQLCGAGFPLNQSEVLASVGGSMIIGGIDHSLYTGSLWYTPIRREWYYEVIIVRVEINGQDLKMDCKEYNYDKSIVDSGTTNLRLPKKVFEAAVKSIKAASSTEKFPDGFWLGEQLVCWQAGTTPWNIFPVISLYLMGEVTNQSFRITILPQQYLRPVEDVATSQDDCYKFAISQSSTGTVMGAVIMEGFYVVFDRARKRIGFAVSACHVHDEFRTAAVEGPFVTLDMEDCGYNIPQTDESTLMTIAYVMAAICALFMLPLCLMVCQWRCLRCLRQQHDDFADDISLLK

| SMILES | Plasma Aβ42 levels (Aβ42) | β-secretase enzyme activity (β-secretase) | survival, weight, fur condition, cage behavior [1] | γ-secretase enzyme activity (γ-secretase) | probe trial, % time in target quadrant, compared with non-Tg littermates (TgCRND8 mice) | synaptic response in the absence of a potentiating tetanus ([2]; baseline transmission, data not shown) | direct effect on LTP ([2]; compound-treated medium from plain CHO cells) |
| --- | --- | --- | --- | --- | --- | --- | --- |
| OC1C(O)C(O)C(O)C(O)C1O (stereo not drawn) [epi-cyclohexanehexol, 1,2,3,4,5/6-(epi-) cyclohexanehexol, reference compound] | 1079 ± 79 pg/mL | – | – | – | – | – | – |
| OC1C(O)C(O)C(O)C(O)C1O (stereo not shown) [scyllo-cyclohexanehexol, 1,3,5/2,4,6-(scyllo-) cyclohexanehexol] | – | no effect | no effect on survival, weight, fur condition or cage behavior | no effect | not statistically different from non-Tg littermates | did not change synaptic response | no direct effect on LTP |
